Experimental data from ChEMBL document CHEMBL3826915, “Design and comparative anticonvulsant activity assessment of CNS-active alkyl-carbamoyl imidazole derivatives” (Bioorg Med Chem, 2016).

Key:
[1] = Clearance in human; assay type: ADME, organism-based; conditions: in vivo
[2] = Volume of distribution in human; assay type: ADME, organism-based; conditions: in vivo
[3] = Half life in human; assay type: ADME, organism-based; conditions: in vivo
[4] = tested on: Homo sapiens; experiment: Anticonvulsant activity in patient assessed as improvement in seizure control at 600 mg/day administered up to 1 year; assay type: functional

clearance [1] [mL/min/kg]	Vd [2] [L/kg]	half-life [3] [h]	Structure (SMILES)	Activity [4] [%]
5	3	5	OC(Cn1ccnc1)c1ccc(CCc2ccccc2)cc1 (centres undefined) [DENZIMOL]	–
–	–	–	O=C(Cn1ccnc1)c1ccc2ccccc2c1 [NAFIMIDONE]	33
